Square brackets hold non-standard residues; d marks the D form. Peptide text beside a SMILES is read from it. Met(O) = CS(=O)CC[C@H](N)C(=O)O; βAla = NCCC(=O)O
How the values were obtained:
human red blood cells = experiment: Determination of haemolytic activity; type: cell-based; settings: human red blood cells (5% v/v), 1 h at 37 °C; concentration for lysis of 50% of erythrocytes
Method: The peptides in the concentrations 2-400 µmol.1^-1 were incubated with the suspension of human red blood cells (5% v/v) for 1 h at 37 °C in a physiological solution at a final volume of 0.2 ml. The samples were then centrifuged for 5 min at 250 g. The absorbance of the supernatant was determined at 540 nm. 0.2% (v/v) TRITON X100 was used as a control for 100% haemolysis. Haemolytic activity is expressed as the peptide concentration required for lysis of 50% of human erythrocytes in the assay (LC50). Table 2. Antimicrobial and haemolytic activity of I up to XIII peptides and tetracycline.

[1] = tested on: S. aureus (clin. isolate Liberec); experiment: Induced osteomyelitis model in femur heads: effect of peptides released from carrier on infection in the bone graft; type: cell-based; settings: ChronOS (200 mg); 10 mg; two days; carrier without peptide 1,4x10^7
Method: (§1) 3-4 holes of a diameter of 5 mm and a depth of 10 mm are drilled with a surgical spoon into a femur head under sterile conditions (spongy part of the bone in the resection site). Thereafter, this bone graft is put into a beaker of appropriate size and lined with sterile gauze squares. The gauze is moistened with sterile physiological saline to prevent drying of the bone. Then, suspension of multiplied microbes in an appropriate medium (50-100 µl) at a concentration of 10^7 to 10^9 CFU is sequentially applied to the prepared holes in the bone graft and allowed to incubate for 1-2 days. […] Beaker with the infected bone graft is covered with a sterile Petri dish. During the experiment, induced osteomyelitis models are kept protected from light at room temperature.
(§2) After the incubation, the infected holes in the bone are filled with a mixture of the local carrier, and a peptide selected from the series of peptides of formulae I to XIII or their specific enantiomers (Figure 1). For comparison, one of the holes is filled with the local carrier without peptide, or the carrier filled with antibiotic (vancomycin or gentamicin). A commercially available two-component material supplied by Synthes (Synthes GmbH, Switzerland) under the name ChronOS Inject was used as the carrier. Its solid component comprises a mixture of calcium phosphates CaHPO4.2H2O and Ca3(PO4)2 and additives, the liquid component is 0.5% (vol./vol.) solution of hyaluronic acid.
(§3) After two days, the filling is thoroughly removed with a surgical spoon and empty holes are wiped with moistened sterile cotton swab, which is then extracted into 400 µl physiological saline. The extract is diluted in a tenfold serial dilution and each diluted suspension is cultured on agar in Petri dishes; the culture is evaluated on the following day. […] The result of the peptide effect is also compared with the result of the effect of antibiotics. In some cases, microbiological examination of the bone tissue taken with a surgical spoon from a deeper area of the drilled holes is performed. […] Table 3. Evaluation of the effect of antimicrobial peptides released from the carrier on an infection in the bone graft. Effect of antimicrobial activity is expressed in the number of CFU (colony-forming units) in the infected hole after swabbing.

Bacillus subtilis = type: cell-based; settings: B.s.; 37° C for 20 h
Method: (§4) Gram-positive bacteria (Bacillus subtilis, Staphylococcus aureus, Staphylococcus epidermidis and Enterococcus faecalis), Gram-negative bacteria (Escherichia coli and Pseudomonas aeruginosa) and the yeast (Candida albicans) were grown to exponential phase and then were diluted with fresh medium. BHI medium (Oxoid, Great Britain) was used for Enterococcus faecalis; YPD medium containing yeast extract, peptone and glucose was used for Candida albicans and LB medium (Sigma, Czech Republic) was used for the remaining microorganisms. Then the microorganisms were added to the solutions of the tested antimicrobial peptides in LB medium in multi-well plates, so that the final peptide concentration it the wells was in the range of 0.5 to 100 µmοl.1^-1. The plates were incubated at 37° C for 20 h while being continuously shaken in a Bioscreen C (Oy Growth Curves AB Ltd., Helsinki, Finland). Absorbance was measured at 540 nm every 15 min. Antimicrobial activity (Table 2) was determined as a quantitative minimum inhibitory concentration (MIC) by observing bacterial growth in the presence of different concentrations of tested peptides. In the experiments, ca 10^5 CFU of bacteria or candida per well were used. Tetracycline in a concentration range of 0.5 - 100 µmol.1^-1 was used as a standard.
(§5) Clinical isolates of bacteria were obtained from University Hospital in Motol, Prague, Czech Republic and from Liberec Regional Hospital, Czech Republic. Methicillin resistant Staphylococcus aureus (MRSA) 6271 and Pseudomonas aeruginosa 5482 were from the Czech National Collection of Type Cultures, the National Institute of Public Health, Prague, Czech Republic. Other bacteria were from the Czech Collection of Microorganisms, Brno, Czech Republic. Candida albicans came from the Faculty of Medicine, Palacky University, Olomouc, Czech Republic. Candida tropicalis ATCC 750 and Candida glabrata DSY 565 were obtained from the Institute of Physiology, Academy of Sciences of the Czech Republic.

Candida albicans = type: cell-based; settings: C.a.; 37° C for 20 h
Method: as §4, §5

Escherichia coli = type: cell-based; settings: E.c.; 37° C for 20 h
Method: as §4, §5

[2] = tested on: MRSA (clin. isolate Liberec); type: cell-based, Staphylococcus aureus; settings: 37° C for 20 h
Method: as §4, §5

[3] = tested on: MRSA (clin. isolate Motol); type: cell-based, Staphylococcus aureus; settings: 37° C for 20 h
Method: as §4, §5

MRSA 6271 [4] = type: cell-based, Staphylococcus aureus; settings: 37° C for 20 h
Method: as §4, §5

[5] = tested on: S.e. (clin. isolate Motol); type: cell-based, Staphylococcus epidermidis; settings: 37° C for 20 h
Method: as §4, §5

[6] = tested on: E.f. (clin. isolate Motol); type: cell-based, Enterococcus faecalis; settings: 37° C for 20 h
Method: as §4, §5

[7] = tested on: P.a. (clin. isolate Liberec); type: cell-based, Pseudomonas aeruginosa; settings: 37° C for 20 h
Method: as §4, §5

P.a. 5482 = type: cell-based, Pseudomonas aeruginosa; settings: 37° C for 20 h
Method: as §4, §5

[8] = tested on: S. epidermidis (clin. isolate Motol); experiment: Induced osteomyelitis model in femur heads: effect of peptides released from carrier on infection in the bone graft; type: cell-based; settings: 10 mg, two days
Method: as §1, §2, §3

MRSA 6271 [9] = experiment: Biofilm formation on the surface of a bone cement implant in femur heads; type: cell-based, Staphylococcus aureus; settings: two days, cement without peptide 6.0x10^4
Method: The resulting elastic paste is placed into a 2 ml plastic syringe (without needle) and pressed into the infected holes in the spongy part of the bone, where it polymerizes and hardens. For comparison, other similarly infected holes are filled with cement containing only an antibiotic or antimycotic agent. For comparison, a Vancogenx® cement (Tecresa S. p. A., Italy) is used, made from a mixture of a powdered polymer component containing vancomycin and gentamicin. The mixture in an amount of 125 mg is mixed with liquid monomer (50-60 µl) and then pressed into the openings as described above. In another embodiment, the cements are applied to uninfected holes, allowed to harden, and then microbes are pipetted into the hole excavated between implants. From there they penetrate through bone tissue and settle on the implants with consequent formation of biofilms.
After two days, implants are removed with metal spikes and tweezers, mechanically cleaned from debris of bone tissue, and washed four times with physiological saline (0.5 ml) in plastic tubes to remove any residual planktonic microbes or bone cells from their surface. The implants in closed tubes with 0.4 ml saline are then sonicated four times for 3 min with occasional shaking. The of microbial biofilm on the surface of the implant is thus disrupted and microbes are loosed into the physiological saline. The resulting suspension is subsequently diluted using the tenfold serial dilution for culturing on agar.
Evaluation of the effect of antimicrobial peptides on the formation of microbial biofilm on the surface of the implant made of the bone cement.

SMILES	Hemolytic activity LC50 (human red blood cells) [µmol/L]	CFU/hole [1]	Antimicrobial activity MIC (Bacillus subtilis)	Antimicrobial activity MIC (Candida albicans)	Antimicrobial activity MIC (Escherichia coli)	Antimicrobial activity MIC [2]	Antimicrobial activity MIC [3]	Antimicrobial activity MIC (MRSA 6271 [4])	Antimicrobial activity MIC [5]	Antimicrobial activity MIC [6]	Antimicrobial activity MIC [7]	Antimicrobial activity MIC (P.a. 5482)	CFU/hole ([8]; ChronOS (300 mg), separate holes, carrier without peptide 1,2x10^5) [in all cases CFU/hole]	CFU/hole ([8]; ChronOS (200 mg), carrier without peptide 7,2x10^4)	CFU/implant (MRSA 6271 [9]) [CFU/implant]
CC[C@@H](C)[C@@H](NC(=O)[C@@H](CCCCN)NC(=O)[C@@H](CCCCN)NC(=O)[C@@H](CC(C)C)NC(=O)[C@@H](CC(C)C)NC(=O)[C@@H](CCCCN)NC(=O)[C@@H](CCSC)NC(=O)[C@@H](Cc1c[nH]c2ccccc12)NC(=O)[C@H](N)CCCCN)C(=O)N[C@H](CC(C)C)C(=O)N[C@H](CCCCN)C(N)=O [II] (H-[dK][dW][dM][dK][dL][dL][dK][dK][dI][dL][dK]-NH2)	>400	1,8 x10^4 CFU/hole													
CC[C@@H](C)[C@@H](NC(=O)[C@@H](CCCCN)NC(=O)[C@@H](CCCCN)NC(=O)[C@@H](CC(C)C)NC(=O)[C@@H](CC(C)C)NC(=O)[C@@H](CCCCN)NC(=O)[C@@H](CCSC)NC(=O)[C@@H](Cc1c[nH]c2ccccc12)NC(=O)[C@@H](CCCCN)NC(=O)CN)C(=O)N[C@H](CC(C)C)C(=O)N[C@H](CCCCN)C(N)=O [IV]	>400		1,4 µmol.l^-1	5,7 µmol.l^-1	3,0 µmol.l^-1	5,3 µmol.l^-1	9,7 µmol.l^-1	11,3 µmol.l^-1	2,0 µmol.l^-1	12,7 µmol.l^-1	12,5 µmol.l^-1	4,5 µmol.l^-1			
CC[C@@H](C)[C@@H](NC(=O)[C@@H](CCCCN)NC(=O)[C@@H](CCCCN)NC(=O)[C@@H](CC(C)C)NC(=O)[C@@H](CC(C)C)NC(=O)[C@@H](CCCCN)NC(=O)[C@H](NC(=O)[C@@H](Cc1c[nH]c2ccccc12)NC(=O)[C@@H](CCCCN)NC(=O)CN)C(C)C)C(=O)N[C@H](CC(C)C)C(=O)N[C@H](CCCCN)C(N)=O [IX] (H-G[dK][dW][dV][dK][dL][dL][dK][dK][dI][dL][dK]-NH2)	>400												0		
CC[C@H](C)[C@H](NC(=O)[C@H](CCCCN)NC(=O)[C@H](CCCCN)NC(=O)[C@H](CC(C)C)NC(=O)[C@H](CC(C)C)NC(=O)[C@H](CCCCN)NC(=O)[C@H](CC(C)C)NC(=O)[C@H](Cc1c[nH]c2ccccc12)NC(=O)[C@H](CCCCN)NC(=O)CN)C(=O)N[C@@H](CC(C)C)C(=O)N[C@@H](CCCCN)C(N)=O [Peptide VII] (H-GKWLKLLKKILK-NH2)	196		2,0 µmol.l^-1	16,0 µmol.l^-1	5,0 µmol.l^-1	8,0 µmol.l^-1	10,0 µmol.l^-1	10,0 µmol.l^-1	2,2 µmol.l^-1	50,7 µmol.l^-1	10,7 µmol.l^-1	4,0 µmol.l^-1		1,2 x10^2 CFU/hole	
CC[C@@H](C)[C@@H](NC(=O)[C@@H](CCCCN)NC(=O)[C@@H](CCCCN)NC(=O)[C@@H](CC(C)C)NC(=O)[C@@H](CC(C)C)NC(=O)[C@@H](CCCCN)NC(=O)[C@@H](CCSC)NC(=O)[C@@H](Cc1c[nH]c2ccccc12)NC(=O)[C@@H](CCCCN)NC(=O)CCN)C(=O)N[C@H](CC(C)C)C(=O)N[C@H](CCCCN)C(N)=O [Peptide VI] (H-[βAla][dK][dW][dM][dK][dL][dL][dK][dK][dI][dL][dK]-NH2)	>400														
CC[C@H](C)[C@H](NC(=O)[C@H](CCCCN)NC(=O)[C@H](CCCCN)NC(=O)[C@H](CC(C)C)NC(=O)[C@H](CC(C)C)NC(=O)[C@H](CCCCN)NC(=O)[C@H](CC[S+](C)[O-])NC(=O)[C@H](Cc1c[nH]c2ccccc12)NC(=O)[C@H](CCCCN)NC(=O)CN)C(=O)N[C@@H](CC(C)C)C(=O)N[C@@H](CCCCN)C(N)=O (stereo partly drawn) [XII] (H-GKW[Met(O)]KLLKKILK-NH2)	>400		2,5 µmol.l^-1	21,3 µmol.l^-1	26,7 µmol.l^-1	11,5 µmol.l^-1	25,3 µmol.l^-1	64,0 µmol.l^-1	5,0 µmol.l^-1	>100 µmol/L	22,1 µmol.l^-1	5,0 µmol.l^-1			0
CC[C@H](C)[C@H](NC(=O)[C@H](CCCCN)NC(=O)[C@H](CCCCN)NC(=O)[C@H](CC(C)C)NC(=O)[C@H](CC(C)C)NC(=O)[C@H](CCCCN)NC(=O)[C@H](CCCCN)NC(=O)[C@H](Cc1c[nH]c2ccccc12)NC(=O)[C@H](CCCCN)NC(=O)CN)C(=O)N[C@@H](CC(C)C)C(=O)N[C@@H](CCCCN)C(N)=O [X] (H-GKWKKLLKKILK-NH2)	>400		2,4 µmol.l^-1	9,5 µmol.l^-1	11,5 µmol.l^-1	11,5 µmol.l^-1	25,3 µmol.l^-1	29,7 µmol.l^-1	4,7 µmol.l^-1	>100 µmol/L	9,5 µmol.l^-1	2,9 µmol.l^-1			
